Measured values taken from patent US4393225A, “AI-77 Compounds and pharmaceutically acceptable salts thereof” (Asahi Kasei Kogyo Kabushiki Kaisha, priority 1979, dated 1983).

The molecules below were run on ulcer (assay: Anti-ulcer test (restraint and water immersion ulcer in rats, i.p.)). Details: Rattus norvegicus, ip, read-out: % Inhibition of Ulcer.
Type: in vivo, Male Wistar rats
How it was run: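 Male Wistar rats (~150 g), fasted 24 h, dosed i.p. with compound in physiological saline; 1 h later restrained and immersed to xiphisternum in 21 °C water for 6 h. Stomachs examined microscopically, ulcers scored 0–3, and percent inhibition calculated.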

SMILES	inhibition in vivo at 25 mg/kg
CCC(=O)OC(C(=O)NC(CC(C)C)C1Cc2cccc(O)c2C(=O)O1)C(O)C(CC(=O)NC)NC(C)=O (stereo not drawn) [VII-29-1]	66%

Same assay, conditions: Rattus norvegicus, ip; 25 mg/kg i.p.; read-out: % Inhibition of Ulcer

SMILES	inhibition in vivo at 25 mg/kg
CCOc1cccc2c1C(=O)OC(C(CC(C)C)NC(=O)C(O)C(O)C(CC(N)=O)NC)C2 (stereo not drawn) [VII-23-1]	89%
CCOc1cccc2c1C(=O)OC(C(CC(C)C)NC(=O)C(OC(C)=O)C(O)C(CC(N)=O)NC)C2 (stereo not drawn) [VII-24-1]	66%
CCCCCCCCCCCCCCCCCC(=O)NC(CC(=O)NCC)C(O)C(O)C(=O)NC(CC(C)C)C1Cc2cccc(O)c2C(=O)O1 (stereo not drawn) [VII-28-4]	66%
CNC(CC(N)=O)C(O)C(OC(C)=O)C(=O)NC(CC(C)C)C1Cc2cccc(OC(C)=O)c2C(=O)O1 (stereo not drawn) [VII-21-1]	66%
CC(C)CC(NC(=O)C(O)C(O)C(N)CC(N)=O)C1Cc2cccc(OC(=O)C(C)C)c2C(=O)O1 (stereo not drawn) [VII-4-2]	89%
CCCCCCCCCCCCCCCCCCNC(CC(N)=O)C(O)C(OCCCC)C(=O)NC(CC(C)C)C1Cc2cccc(O)c2C(=O)O1 (stereo not drawn) [VII-17-2]	56%
CC(=O)N1CCC(CNC(=O)CC(N)C(O)C(O)C(=O)NC(CC(C)C)C2Cc3cccc(O)c3C(=O)O2)CC1 (stereo not drawn) [VII-1-17]	83%
CCNC(CC(N)=O)C(O)C(O)C(=O)NC(CC(C)C)C1Cc2cccc(OC(C)=O)c2C(=O)O1 (stereo not drawn) [VII-13-1]	83%

Same assay, conditions: Rattus norvegicus, ip; 50 mg/kg i.p.; read-out: % Inhibition of Ulcer

SMILES	inhibition in vivo at 50 mg/kg
CNC1CC(=O)OC1C(OC(C)=O)C(=O)NC(CC(C)C)C1Cc2cccc(O)c2C(=O)O1 (stereo not drawn) [IIIa-28-1]	66%
CCCCCCCCOc1cccc2c1C(=O)OC(C(CC(C)C)NC(=O)C(O)C1OC(=O)CC1NC(C)=O)C2 (stereo not drawn) [IIIa-5-11]	44%
CCCCCCCCCCCCCCCCCCOc1cccc2c1C(=O)OC(C(CC(C)C)NC(=O)C(OC(C)=O)C1OC(=O)CC1NC(=O)C1CCCO1)C2 (stereo not drawn) [IIIa-6-6]	33%
CCOc1cccc2c1C(=O)OC(C(CC(C)C)NC(=O)C(O)C1OC(=O)CC1NC(=O)c1ccccc1)C2 (stereo not drawn) [IIIa-5-16]	33%
CCC(=O)OC(C(=O)NC(CC(C)C)C1Cc2cccc(OCC3CCCCC3)c2C(=O)O1)C1OC(=O)CC1NC(C)=O (stereo not drawn) [IIIa-6-10]	33%
CC(=O)Oc1cccc2c1C(=O)OC(C(CC(C)C)NC(=N)C(OC(=O)C(C)C)C(O)C(N)CC(=O)O)C2 (stereo not drawn) [Vb-3-1]	56%
CCCCCCCCCCCCCCCCCC(=O)Oc1cccc2c1C(=O)OC(C(CC(C)C)NC(=O)C(O)C1C=CC(=O)O1)C2 (stereo not drawn) [IVa-3-9]	33%
CCC(=O)OC(C(=O)NC(CC(C)C)C1Cc2cccc(O)c2C(=O)O1)C1C=CC(=O)O1 (stereo not drawn) [IVa-1-2]	44%
CCOc1cccc2c1C(=O)OC(C(CC(C)C)NC(=O)C(O)C1OC(=O)CC1NC(=O)CCC1CCCC1)C2 (stereo not drawn) [IIIa-5-61]	33%
CCOc1cccc2c1C(=O)OC(C(CC(C)C)NC(=O)C(O)C1OC(=O)CC1NC)C2 (stereo not drawn) [IIIa-31-2]	94%
CCCCCCCCC=CCCCCCCCCOc1cccc2c1C(=O)OC(C(CC(C)C)NC(=O)C(O)C1OC(=O)CC1N)C2 (stereo not drawn) [IIIa-13-7]	72%
CCCCCCCCCCCCCCCCCC(=O)NC1CC(=O)OC1C(OC(C)=O)C(=O)NC(CC(C)C)C1Cc2cccc(OCC)c2C(=O)O1 (stereo not drawn) [IIIa-6-4]	22%
COc1ccc(COc2cccc3c2C(=O)OC(C(CC(C)C)NC(=O)C(O)C2OC(=O)CC2N)C3)cc1 (stereo not drawn) [IIIa-13-23]	72%
CCOc1cccc2c1C(=O)OC(C(CC(C)C)NC(=O)C(O)C1OC(=O)CC1NC(=O)c1ccc(OC(C)=O)cc1)C2 (stereo not drawn) [IIIa-5-35]	44%
CCOc1cccc2c1C(=O)OC(C(CC(C)C)NC(=O)C(OC(C)=O)C1OC(=O)CC1NC(=O)CC(C)OC)C2 (stereo not drawn) [IIIa-6-7]	33%
CCCCCCCCCCCCCCCCCC(=O)OC(C(=O)NC(CC(C)C)C1Cc2cccc(O)c2C(=O)O1)C1C=CC(=O)O1 (stereo not drawn) [IVa-1-11]	33%
CCOc1cccc2c1C(=O)OC(C(CC(C)C)NC(=O)C(O)C1OC(=O)CC1NC(=O)C(Cl)(Cl)Cl)C2 (stereo not drawn) [IIIa-5-13]	33%
CCOc1cccc2c1C(=O)OC(C(CC(C)C)NC(=O)C(O)C1OC(=O)CC1NCCCCBr)C2 (stereo not drawn) [IIIa-22-25]	89%
CCCCCCC(=O)Oc1cccc2c1C(=O)OC(C(CC(C)C)NC(=O)C(O)C1C=CC(=O)O1)C2 (stereo not drawn) [IVa-3-6]	33%

SMILES	inhibition in vivo at 50 mg/kg
CCCCNC(CC(=O)O)C(O)C(OC(=O)CCC)C(=N)NC(CC(C)C)C1Cc2cccc(O)c2C(=O)O1 (stereo not drawn) [Vb-11-3]	72%
CCCCOc1cccc2c1C(=O)OC(C(CC(C)C)NC(=O)C(OCCCC)C1OC(=O)CC1NC)C2 (stereo not drawn) [IIIa-33-3]	56%
CCCCNC1CC(=O)OC1C(O)C(=O)NC(CC(C)C)C1Cc2cccc(OCCC(C)C)c2C(=O)O1 (stereo not drawn) [IIIa-22-77]	94%
CCCCOc1cccc2c1C(=O)OC(C(CC(C)C)NC(=N)C(OCCCC)C(O)C(N)CC(=O)O)C2 (stereo not drawn) [Vb-7-2]	66%
CC(C)CC(NC(=O)C(O)C1OC(=O)CC1NC(=O)CCC1CCCC1)C1Cc2cccc(O)c2C(=O)O1 (stereo not drawn) [IIIa-1-63]	66%
CCOc1cccc2c1C(=O)OC(C(CC(C)C)NC(=O)C(OC(=O)C(C)C)C1OC(=O)CC1N)C2 (stereo not drawn) [IIIa-14-2]	56%
CC(C)CC(NC(=O)C(O)C1OC(=O)CC1NC(=O)C1CCCO1)C1Cc2cccc(O)c2C(=O)O1 (stereo not drawn) [IIIa-1-23]	66%
CCOc1cccc2c1C(=O)OC(C(CC(C)C)NC(=O)C(O)C1OC(=O)CC1NC(=O)Cc1cccnc1)C2 (stereo not drawn) [IIIa-5-57]	33%
CCCCOC(C(=O)NC(CC(C)C)C1Cc2cccc(OC)c2C(=O)O1)C1OC(=O)CC1N (stereo not drawn) [IIIa-15-1]	56%
Cc1ccc(COc2cccc3c2C(=O)OC(C(CC(C)C)NC(=O)C(O)C2OC(=O)CC2N)C3)cc1 (stereo not drawn) [IIIa-13-21]	89%
CCOc1cccc2c1C(=O)OC(C(CC(C)C)NC(=O)C(OC(=O)C(C)C)C1OC(=O)CC1NC)C2 (stereo not drawn) [IIIa-32-2]	44%
CCCCCCCCCCCCCCCCCCOc1cccc2c1C(=O)OC(C(CC(C)C)NC(=O)C(O)C1C=CC(=O)O1)C2 (stereo not drawn) [IVa-4-5]	33%
CCOc1cccc2c1C(=O)OC(C(CC(C)C)NC(=O)C(O)C1OC(=O)CC1NC(=O)c1ccc(OC)cc1)C2 (stereo not drawn) [IIIa-5-39]	44%
CCOc1cccc2c1C(=O)OC(C(CC(C)C)NC(=O)C(O)C1OC(=O)CC1NC(=O)c1ccc(C(=O)OC)cc1)C2 (stereo not drawn) [IIIa-5-49]	33%
CCOc1cccc2c1C(=O)OC(C(CC(C)C)NC(=O)C(O)C1OC(=O)CC1NC(=O)Cc1ccc(C)cc1)C2 (stereo not drawn) [IIIa-5-63]	33%
CCCCCCCCCCCCOc1cccc2c1C(=O)OC(C(CC(C)C)NC(=O)C(O)C1OC(=O)CC1NCC)C2 (stereo not drawn) [IIIa-22-9]	83%
CCCCOC(C(=O)NC(CC(C)C)C1Cc2cccc(OC(C)=O)c2C(=O)O1)C1OC(=O)CC1NCC (stereo not drawn) [IIIa-26-1]	66%
CCOc1cccc2c1C(=O)OC(C(CC(C)C)NC(=O)C(OC(C)=O)C1OC(=O)CC1NC(=O)c1ccc(C)cc1)C2 (stereo not drawn) [IIIa-6-8]	22%
COC(C(=N)NC(CC(C)C)C1Cc2cccc(OC(C)=O)c2C(=O)O1)C(O)C(N)CC(=O)O (stereo not drawn) [Vb-9-1]	66%

Same assay, conditions: rat, in vivo

SMILES	anti-ulcer activity (in words)
CC(C)CC(NC(=N)C(O)C(O)C(N)CC(=O)O)C1Cc2cccc(O)c2C(=O)O1 (stereo not drawn) [AI-77-A]	high anti-ulcer activity
